Reference: the NIST ThermoML archive (doi:10.1021/acs.jced.6b00606)
± gives the expanded uncertainty stated by the source.

Experiment: xn = mol fraction of the nth substance listed
Conditions: 100 kPa, Liquid; for speed of sound: Frequency=3 MHz, Sing-around technique in a fixed-path interferometer; for mass density: Vibrating tube method

O=C1CCCCC1 [cyclohexanone] + C1COCCO1
Conditions | mass density, 293.15 K [kg/m3] | mass density, 298.15 K [kg/m3] | mass density, 303.15 K [kg/m3] | mass density, 308.15 K [kg/m3] | speed of sound, 293.15 K [m/s] | speed of sound, 298.15 K [m/s] | speed of sound, 303.15 K [m/s] | speed of sound, 308.15 K [m/s]
x2 = 0.0999 | 953.66 ± 1 | 949.13 ± 1 | 944.25 ± 1 | 939.34 ± 1 | 1423.2 ± 1.3 | 1407.2 ± 1.3 | 1387 ± 1.3 | 1367.1 ± 1.3
x2 = 0.1548 | 957.29 ± 1 | 952.73 ± 1 | 947.83 ± 1 | 942.9 ± 1 | 1419 ± 1.4 | 1402.8 ± 1.4 | 1382.6 ± 1.4 | 1362.7 ± 1.3
x2 = 0.2064 | 960.83 ± 1 | 956.23 ± 1 | 951.32 ± 1 | 946.37 ± 1 | 1415.2 ± 1.4 | 1398.7 ± 1.4 | 1378.5 ± 1.4 | 1358.7 ± 1.4
x2 = 0.2523 | 964.08 ± 1 | 959.45 ± 1 | 954.52 ± 1 | 949.56 ± 1 | 1411.8 ± 1.4 | 1395.1 ± 1.4 | 1374.9 ± 1.4 | 1355 ± 1.4
x2 = 0.3087 | 968.21 ± 1 | 963.55 ± 1 | 958.59 ± 1 | 953.6 ± 1 | 1407.8 ± 1.4 | 1390.8 ± 1.4 | 1370.6 ± 1.4 | 1350.6 ± 1.4
x2 = 0.3412 | 970.67 ± 1 | 965.97 ± 1 | 960.99 ± 1 | 955.99 ± 1 | 1405.5 ± 1.4 | 1388.3 ± 1.4 | 1368.1 ± 1.4 | 1348.1 ± 1.4
x2 = 0.3952 | 974.86 ± 1 | 970.12 ± 1 | 965.11 ± 1 | 960.08 ± 1 | 1401.8 ± 1.4 | 1384.3 ± 1.4 | 1364 ± 1.4 | 1343.9 ± 1.4
x2 = 0.4315 | 977.76 ± 1 | 972.99 ± 1 | 967.96 ± 1 | 962.9 ± 1 | 1399.3 ± 1.4 | 1381.6 ± 1.4 | 1361.3 ± 1.4 | 1341.2 ± 1.4
x2 = 0.4875 | 982.38 ± 1 | 977.54 ± 1 | 972.47 ± 1 | 967.38 ± 1 | 1395.6 ± 1.4 | 1377.6 ± 1.4 | 1357.2 ± 1.4 | 1336.9 ± 1.4
x2 = 0.5348 | 986.41 ± 1 | 981.52 ± 1 | 976.42 ± 1 | 971.29 ± 1 | 1392.5 ± 1.4 | 1374.2 ± 1.4 | 1353.8 ± 1.4 | 1333.5 ± 1.4
x2 = 0.5798 | 990.36 ± 1 | 985.42 ± 1 | 980.28 ± 1 | 975.11 ± 1 | 1389.7 ± 1.4 | 1371.1 ± 1.4 | 1350.6 ± 1.4 | 1330.2 ± 1.4
x2 = 0.6145 | 993.49 ± 1 | 988.51 ± 1 | 983.33 ± 1 | 978.13 ± 1 | 1387.5 ± 1.4 | 1368.7 ± 1.4 | 1348.2 ± 1.4 | 1327.7 ± 1.4
x2 = 0.6698 | 998.63 ± 1 | 993.56 ± 1 | 988.34 ± 1 | 983.08 ± 1 | 1384.1 ± 1.4 | 1365 ± 1.4 | 1344.4 ± 1.4 | 1323.8 ± 1.4
x2 = 0.7148 | 1002.9 ± 1 | 997.82 ± 1 | 992.55 ± 1 | 987.23 ± 1 | 1381.5 ± 1.4 | 1362 ± 1.4 | 1341.4 ± 1.4 | 1320.7 ± 1.4
x2 = 0.7682 | 1008.2 ± 1 | 1003 ± 1 | 997.69 ± 1 | 992.32 ± 1 | 1378.5 ± 1.4 | 1358.7 ± 1.4 | 1338 ± 1.4 | 1317.1 ± 1.4
x2 = 0.8015 | 1011.6 ± 1 | 1006.4 ± 1 | 1001 ± 1 | 995.58 ± 1 | 1376.8 ± 1.5 | 1356.7 ± 1.4 | 1335.9 ± 1.4 | 1314.9 ± 1.4
x2 = 0.8542 | 1017.2 ± 1 | 1011.8 ± 1 | 1006.4 ± 1 | 1000.8 ± 1 | 1374.1 ± 1.5 | 1353.6 ± 1.5 | 1332.7 ± 1.5 | 1311.5 ± 1.5
x2 = 0.9054 | 1022.7 ± 1 | 1017.3 ± 1 | 1011.7 ± 1 | 1006.2 ± 1 | 1371.7 ± 1.5 | 1350.8 ± 1.5 | 1329.6 ± 1.5 | 1308.3 ± 1.5

O=C1CCCCCC1 [cycloheptanone] + C1CCOCC1
Conditions | mass density, 293.15 K [kg/m3] | mass density, 298.15 K [kg/m3] | mass density, 303.15 K [kg/m3] | mass density, 308.15 K [kg/m3] | speed of sound, 293.15 K [m/s] | speed of sound, 298.15 K [m/s] | speed of sound, 303.15 K [m/s] | speed of sound, 308.15 K [m/s]
x2 = 0.0845 | 948.05 ± 1 | 943.9 ± 1 | 939.65 ± 1 | 935.43 ± 1 | 1457.2 ± 1.6 | 1435 ± 1.6 | 1411.9 ± 1.6 | 1389.1 ± 1.6
x2 = 0.1276 | 946.02 ± 1 | 941.88 ± 1 | 937.63 ± 1 | 933.42 ± 1 | 1447.3 ± 1.6 | 1424.9 ± 1.6 | 1401.8 ± 1.6 | 1378.9 ± 1.6
x2 = 0.1794 | 943.48 ± 1 | 939.35 ± 1 | 935.11 ± 1 | 930.88 ± 1 | 1435.5 ± 1.6 | 1413 ± 1.6 | 1389.8 ± 1.6 | 1366.9 ± 1.6
x2 = 0.2172 | 941.57 ± 1 | 937.43 ± 1 | 933.19 ± 1 | 928.95 ± 1 | 1427.2 ± 1.6 | 1404.5 ± 1.6 | 1381.3 ± 1.6 | 1358.4 ± 1.6
x2 = 0.254 | 939.66 ± 1 | 935.51 ± 1 | 931.26 ± 1 | 927.02 ± 1 | 1419.2 ± 1.6 | 1396.5 ± 1.6 | 1373.2 ± 1.6 | 1350.2 ± 1.5
x2 = 0.3098 | 936.64 ± 1 | 932.46 ± 1 | 928.23 ± 1 | 923.95 ± 1 | 1407.4 ± 1.5 | 1384.5 ± 1.5 | 1361.1 ± 1.5 | 1338.2 ± 1.5
x2 = 0.341 | 934.9 ± 1 | 930.72 ± 1 | 926.47 ± 1 | 922.18 ± 1 | 1400.9 ± 1.5 | 1378 ± 1.5 | 1354.6 ± 1.5 | 1331.6 ± 1.5
x2 = 0.3982 | 931.59 ± 1 | 927.36 ± 1 | 923.12 ± 1 | 918.8 ± 1 | 1389.4 ± 1.5 | 1366.4 ± 1.5 | 1342.9 ± 1.5 | 1319.9 ± 1.5
x2 = 0.4407 | 929.02 ± 1 | 924.78 ± 1 | 920.53 ± 1 | 916.18 ± 1 | 1381.2 ± 1.5 | 1358 ± 1.5 | 1334.6 ± 1.5 | 1311.6 ± 1.5
x2 = 0.4986 | 925.38 ± 1 | 921.12 ± 1 | 916.82 ± 1 | 912.46 ± 1 | 1370.2 ± 1.5 | 1346.9 ± 1.5 | 1323.6 ± 1.5 | 1300.6 ± 1.5
x2 = 0.5312 | 923.24 ± 1 | 918.96 ± 1 | 914.66 ± 1 | 910.27 ± 1 | 1364.3 ± 1.5 | 1340.9 ± 1.5 | 1317.5 ± 1.5 | 1294.6 ± 1.5
x2 = 0.5779 | 920.07 ± 1 | 915.78 ± 1 | 911.43 ± 1 | 907.03 ± 1 | 1355.9 ± 1.5 | 1332.6 ± 1.5 | 1309.2 ± 1.5 | 1286.3 ± 1.5
x2 = 0.6295 | 916.42 ± 1 | 912.11 ± 1 | 907.7 ± 1 | 903.26 ± 1 | 1347.1 ± 1.5 | 1323.7 ± 1.5 | 1300.3 ± 1.4 | 1277.4 ± 1.4
x2 = 0.6717 | 913.29 ± 1 | 908.95 ± 1 | 904.49 ± 1 | 900.02 ± 1 | 1340.1 ± 1.4 | 1316.6 ± 1.4 | 1293.3 ± 1.4 | 1270.5 ± 1.4
x2 = 0.7229 | 909.34 ± 1 | 904.97 ± 1 | 900.41 ± 1 | 895.9 ± 1 | 1331.9 ± 1.4 | 1308.4 ± 1.4 | 1285.2 ± 1.4 | 1262.4 ± 1.4
x2 = 0.7686 | 905.66 ± 1 | 901.22 ± 1 | 896.58 ± 1 | 892.03 ± 1 | 1324.8 ± 1.4 | 1301.4 ± 1.4 | 1278.2 ± 1.4 | 1255.4 ± 1.4
x2 = 0.8202 | 901.28 ± 1 | 896.77 ± 1 | 892.03 ± 1 | 887.39 ± 1 | 1317.2 ± 1.4 | 1293.7 ± 1.4 | 1270.6 ± 1.4 | 1247.9 ± 1.4
x2 = 0.8742 | 896.48 ± 1 | 891.84 ± 1 | 886.98 ± 1 | 882.23 ± 1 | 1309.5 ± 1.4 | 1286.1 ± 1.4 | 1263 ± 1.4 | 1240.4 ± 1.4
